Measurements published in patent US20230381196A1, “COMPOSITIONS COMPRISING BISFLUOROALKYL-1,4-BENZODIAZEPINONE COMPOUNDS FOR TREATING ADENOID CYSTIC CARCINOMA” (AYALA PHARMACEUTICALS INC., priority 2020, published 2023).

Legend:
ACC83 cells = test: Wound healing (migration) assay; assay type: cell-based, Human; conditions: 10 nM for 14 days, vs untreated cells
Protocol: (§1) FIG. 11A. Effect of Compound (1) monotherapy on cell migration in ACC83 cell line. ACC83 cells were treated with either 10 nM Compound (1) or DMSO (control) for 14 days. Cells were then plated in wells containing inserts and allowed to attach for 12 h. The inserts were removed, and the gap was photographed at 0 h and at 12 h (left panel).
(§2) Methods: A wound healing assay was carried out to assess migration potential of ACC83 and ACC112 cells. Cells were cultured in triplicate in 6-well plates (1×10^6 cells per well) containing culture inserts (Ibidi). On reaching 90% confluence, the inserts were removed, and cells were cultured for 12 hr. Gap area in individual wells was determined using ImageJ. The gap area percentage was calculated as the gap area at 12 hr relative to the gap area at 0 hr. A Boyden chamber assay was carried out to assess the invasion potential of ACC83 and ACC112 cells. Cells were cultured (1×10^4 cells per well) in triplicate into the upper chamber of Matrigel-coated transwell chambers (8-μm pore size, Corning) in serum-free medium, while 10% FBS medium was added to the bottom chamber to stimulate invasion. After 24 h incubation, the cells in the upper chamber were carefully removed with cotton swab, and the cells that had invaded through Matrigel were stained with 1DiffQuick, photographed at 40× magnification and quantified across three random fields.

[1] = Phase 2 trial: treatment-related adverse events; assay type: in vivo, human; conditions: 4 mg IV once weekly
Protocol: Starting on Cycle 1, Day 1, eligible subjects enrolled in the study received Compound (1), 4 mg intravenously (IV) weekly (qwk), on Days 1, 8, 15, and 22 of each 28-day cycle until disease progression, unacceptable toxicity, or consent withdrawal. Paired tumor biopsies were collected at screening (fresh or archival within 5 years) and upon confirmation of disease progression (provided medically safe and not contraindicated). Samples were sent to a central vendor for NGS analysis. Formalin-fixed paraffin embedded (FFPE) slides were evaluated by IHC for NICDI stain.
During the treatment period, subjects underwent radiographic assessments every 8 weeks (±3 days) for review by Independent Central Review (ICR) as well as by the Investigator. Other assessments performed included safety exploratory biomarkers.
Compound (1) is a potent and selective inhibitor of gamma secretase-mediated Notch signaling. Compound (1) was administered IV at the dose of 4 mg every 7 days (1 day; QW) over 28-day cycles until disease progression, unacceptable toxicity, or consent withdrawal. Compound (1) injection was developed as a single-use sterile solution (1.2 mg/mL; […]) for IV administration in clinical studies; each vial contained 5 mL (equivalent of 6 mg per vial). It was formulated as a sterile concentrate containing Cremophor and ethanol and was diluted with 0.9% Sodium Chloride injection, USP (normal saline) or 5% Dextrose Injection, USP (D5W) to concentrations between 0.01 mg/mL and 0.06 mg/mL. In order to reduce the risk of infusion reactions caused by Cremophor, premedication with H1- and H2-blockers (diphenhydramine and ranitidine or equivalents) or dexamethasone (8-10 mg) were administered.
Subjects selected for a global open-label, multicenter study with ACC and Notch mutations had disease progression or were newly diagnosed with metastatic disease (FIG. 1). Based on the safety and activity found in the initial once weekly cohort treated intravenously with 4 mg of Compound (1), the study was amended to add a cohort of 42 additional subjects treated intravenously with 6 mg of Compound (1) once weekly. The primary endpoint is objective response rate (ORR) by investigator. As of Jul. 30, 2020, 45 subjects had been treated in the 4 mg cohort and these were evaluable for safety analysis. Of these 45 subjects, 40 had scans available at week 8 (Table 2), and the scans were evaluable for efficacy assessment. Sixty percent of subjects had prior chemotherapy, and 95% prior radiotherapy (Table 2). Lung and bone were the most common sites of recurrence (Table 2).

ACC112 cells = test: Wound healing (migration) assay; assay type: cell-based, Human; conditions: 10 nM for 14 days, vs untreated cells
Protocol: as §1, with “11B.” for “11A.”, “ACC112” for “ACC83”
as §2

## CN1C(=O)[C@@H](NC(=O)[C@H](CCC(F)(F)F)[C@H](CCC(F)(F)F)C(N)=O)N=C(c2ccccc2)c2ccccc21 [Compound (1), (2R,3S)—N-((3S)-1-methyl-2-oxo-5-phenyl-2,3-dihydro-1H-1,4-benzodiazepin-3-yl)-2,3-bi s(3,3,3-trifluoropropyl)succinamide]
ACC83 cells
  cell migration (relative gap width at 12 h): significantly inhibited the migration
[1]
  cases of diarrhea that were Grade 1/2: 25/27
  subjects who died due to treatment-related pneumonia: one
  subjects with a Grade 4 treatment-related adverse event of hyponatremia: one
  tolerability in subjects: generally well tolerated
  treatment-related diarrhea: 60%
[1]; N = 45
  Any TRAE, Grade 3/4: 9 (20) n (%)
  Cough TRAE, Any Grade: 12 (27) n (%)
  Cough TRAE, Grade 3/4: 0 n (%)
  Decreased appetite TRAE, Any Grade: 7 (16) n (%)
  Decreased appetite TRAE, Grade 3/4: 1 (2) n (%)
  Diarrhea TRAE, Any Grade: 27 (60) n (%)
  Diarrhea TRAE, Grade 3/4: 2 (4) n (%)
  Dysgeusia TRAE, Any Grade: 7 (16) n (%)
  Dysgeusia TRAE, Grade 3/4: 0 n (%)
  Epistaxis TRAE, Any Grade: 9 (20) n (%)
  Epistaxis TRAE, Grade 3/4: 0 n (%)
  Fatigue TRAE, Any Grade: 23 (51) n (%)
  Fatigue TRAE, Grade 3/4: 2 (4) n (%)
  Hypophosphatemia TRAE, Any Grade: 19 (42) n (%)
  Hypophosphatemia TRAE, Grade 3/4: 2 (4) n (%)
  Nausea TRAE, Any Grade: 22 (49) n (%)
  Nausea TRAE, Grade 3/4: 1 (2) n (%)
  Rash maculo-papular TRAE, Any Grade: 8 (18) n (%)
  Rash maculo-papular TRAE, Grade 3/4: 0 n (%)
  Vomiting TRAE, Any Grade: 12 (27) n (%)
  Vomiting TRAE, Grade 3/4: 0 n (%)
[1]; nine subjects
  subjects with treatment-related adverse events of Grade 3/4: 20%
[1]; safety population N = 45
  Any TRAE, Any Grade: 45 (100) n (%)
ACC112 cells
  cell migration (relative gap width at 12 h): significantly inhibited the migration
